The record followed here is patent publication US20170165374A1, “COMPOSITIONS AND METHODS FOR TREATING BACTERIAL INFECTIONS” (Insmed, Inc., priority 2015, published 2017).

Common to all, as to assay type: cell-based
For experiment [1], the system named is M. abscessus clinical isolate NIH26. Put plainly: Intracellular CFU in M. abscessus infected THP-1 cells (THP-1 NTM model), NIH26. To be noted: NIH 26, 128 μg/mL amikacin. The protocol: (§1) THP-1 cells were seeded in PMA and cultured for 48 hours, exposed to M. abscessus (type strain 19977 or clinical isolate Stanford A or NIH26) at multiplicity of infection (MOI) of approx. 2 for 1 hour followed by incubation with […] amikacin sulfate for 23 hours to reduce the extracellular NTM population. Liposomal amikacin formulations were added at 16, 32, 64, and 128 μg/mL of active concentration and incubated for 24 hours at 37° C. At the end of four 24 hour treatment cycles, cells were washed, lysed, serially diluted, plated, and incubated at 37° C. for 4 days to determine final intracellular CFU counts.

Experiment [2] relates to M. abscessus clinical isolate Stanford A. Put plainly: Intracellular CFU in M. abscessus infected THP-1 cells (THP-1 NTM model), Stanford A. The protocol:
as §1, with “counts. Formulations were loaded with streptomycin and tested against the M. abscessus strains 19977 and Stanford A. Results are shown in Table 8.” for “counts.”

Experiment [3] deals with M. abscessus type strain 19977. Kind of experiment: Intracellular CFU in M. abscessus infected THP-1 cells (THP-1 NTM model), strain 19977. The protocol:
as §1, with “counts. Formulations were loaded with streptomycin and tested against the M. abscessus strains 19977 and Stanford A. Results are shown in Table 8.” for “counts.”

[4] abbreviates: 128 μg/mL amikacin, vs pretreatment.
Where [5] appears, read: 128 μg/mL streptomycin sulfate, vs pretreatment.

Molecules are shown by their SMILES. Where a name gives a salt, the structure may show the parent alone.

For the compound `NCC[C@H](O)C(=O)N[C@@H]1C[C@H](N)[C@@H](O[C@H]2O[C@H](CN)[C@@H](O)[C@H](O)[C@H]2O)[C@H](O)[C@H]1O[C@H]1O[C@H](CO)[C@@H](O)[C@H](N)[C@H]1O` [free ami, amikacin], the “In vitro killing (CFU remaining after 96 h treatment with 128 μg/mL ami-in THP-1 NTM model)” value in experiment [1] is reported as 214667 CFU; in experiment [2] (128 μg/mL amikacin), 135000 CFU; in experiment [3] (128 μg/mL amikacin), 135000 CFU. For the same compound, the “In vitro killing (additional % CFU killed compared to pretreatment after 96 h treatment with 128 μg/mL ami in THP-1 NTM model)” value in experiment [1] (vs pretreatment) is 37.4%; in experiment [2] (setting [4]) it was 75%; in experiment [3] (setting [4]), 50.1%.

As to `[H]/N=C(/N)N[C@H]1[C@H](O)[C@@H](O)[C@H](O[C@@H]2O[C@@H](C)[C@](O)(C=O)[C@H]2O[C@@H]2O[C@@H](CO)[C@H](O)[C@@H](O)[C@@H]2NC)[C@@H](N/C(N)=N\[H])[C@@H]1O` [free streptomycin sulfate, streptomycin sulfate], the “In vitro killing (CFU remaining after 96 h treatment with 128 μg/mL streptomycin sulfate in THP-1 NTM model)” value was determined as 424000 CFU in experiment [2] (128 μg/mL streptomycin sulfate) and 408000 CFU in experiment [3] (128 μg/mL streptomycin sulfate). The figures for the “In vitro killing (addtl. % CFU killed compared to pretreatment after 96 h treatment with 128 μg/mL streptomycin sulfate in THP-1 NTM model)” value in experiment [2] (setting [5]) and in experiment [3] (setting [5]) were 27.4% and 35.8%, respectively.
